Test results as given in patent US20250223276A1, “Substituted Pyrrolidinyl And Piperidinyl Compounds And Related Methods Of Treatment” (Alkermes, Inc., priority 2022, published 2025).

Target: T1, human orexin-2 receptor (OX2R) (Homo sapiens, UniProt O43614)
T1 construct: expressed in transfected cells
T1 sequence (O43614 1-444): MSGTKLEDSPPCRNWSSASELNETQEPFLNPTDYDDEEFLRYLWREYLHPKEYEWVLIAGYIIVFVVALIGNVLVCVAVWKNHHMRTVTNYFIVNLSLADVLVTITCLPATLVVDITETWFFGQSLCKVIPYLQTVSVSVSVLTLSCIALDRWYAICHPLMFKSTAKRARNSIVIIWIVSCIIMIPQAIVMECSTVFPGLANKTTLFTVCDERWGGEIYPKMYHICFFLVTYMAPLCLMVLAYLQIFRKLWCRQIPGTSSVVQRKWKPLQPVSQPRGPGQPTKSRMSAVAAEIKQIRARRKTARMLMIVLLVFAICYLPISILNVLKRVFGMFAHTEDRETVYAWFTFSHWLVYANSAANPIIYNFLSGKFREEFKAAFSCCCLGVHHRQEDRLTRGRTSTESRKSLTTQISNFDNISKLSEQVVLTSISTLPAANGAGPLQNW
Assay: Human OX2R IP1 assay
Assay type: cell-based
Conditions: T-Rex CHO cells stably overexpressing human OX2R; IP1 (inositol monophosphate) accumulation, HTRF; 1 hr at 37 degrees C
Experimental: T-Rex CHO cells stably overexpressing the human orexin-2 receptor (OX2R) are induced overnight with 1 μg/mL of doxycycline in a T225 flask. 24 hours post induction, cells are lifted with accutase and plated into a 384-well proxy plate at 30,000 cells/well. Cells are then treated with different test compounds in 1× stimulation buffer containing 10 mM Hepes, 1 mM CaCl2), 0.5 mM MgCl2, 4.2 mM KCl, 146 mM NaCl, 5.5 mM glucose, and 50 mM LiCl, pH 7.4, for 1 hr at 37 degrees C. Following incubation, the reaction is terminated by the addition of detection mix, which is composed of IP1-d2 and anti-IP1-cryptate diluted in lysis buffer as well as 1× stimulation buffer. The plates are allowed to incubate for 1 hour at room temperature and are then read in the En Vision® multimode plate reader, measuring inositol phosphate levels.
Cisbio IP1 is a cell-based functional assay quantifying the accumulation of inositol monophosphate (IP), a metabolite released as a result of orexin 2 receptor activation through the phospholipase C-Gq signaling pathway. This is a competitive immunoassay in which the IP1 produced by the cells upon receptor activation competes with the IP1 analog coupled to the d2 fluorophore (acceptor) for binding to an anti-IP1 monoclonal antibody labeled with Eu cryptate (donor). The measured HTRF-FRET based signal is inversely proportional to the IP1 concentration produced.
The EC50 values reported in Table 2 were obtained according to the human OX2R IP1 assay described above. Data are the mean EC50 values±S.E.M.

| EC50 | Compound |
| --- | --- |
| > 1 µM | CN1CCCC1C(=O)N1CC[C@H](NS(=O)(=O)N(C)C)[C@H](CO[C@H]2CC[C@@H](c3cccc(F)c3)CC2)C1 (stereo partly drawn) [Compound 51] |
| > 1 µM | CN(C)S(=O)(=O)N[C@H]1CCN(C(=O)OCC2(F)CCC2)C[C@H]1CO[C@H]1CC[C@@H](c2cccc(F)c2)CC1 [Compound 66] |
| > 1 µM | CC1CN(S(=O)(=O)N[C@H]2CCN(c3cccnn3)C[C@H]2CO[C@H]2CC[C@@H](c3cccc(F)c3)CC2)C1 [Compound 23] |
